Like-named read-outs stand apart in the source and are kept apart here.
Tests used:
[1] = Cytotoxicity screening at 10 µM (MTT); format: cell-based, Human; conditions: human, HeLa cells, read-out: Cell line (viability %) HeLa
[2] = Cytotoxicity screening at 10 µM (MTT); format: cell-based, Cercopithecus aethiops; conditions: Cercopithecus aethiops, Vero cells, read-out: Cell line (viability %) Vero
[3] = tested on: Human parainfluenza virus type 3 (HPIV-3); assay: Antiviral activity assay (0.1–1000 µM), IC50; format: cell-based
Procedure: (§1) Antiviral properties of compounds 1e–1g, 1e[PF6], 8a–8d, and 9a were assessed against five viruses: Human herpesvirus 1 (HSV-1, VR-539), Human parainfluenza virus type 3 (HPIV-3, VR-93), Human adenovirus 5 (AdV5, VR-5), Human herpesvirus 5 (HCMV, VR-977), and Encephalomyocarditis virus (EMCV, VR-1479). Viruses were purchased from the American Type Culture Collection (ATCC, Manassas, VA, USA).
(§2) All tested compounds were dissolved in DMSO (dimethyl sulfoxide, Sigma-Aldrich, Darmstadt, Germany) and then suspended in Minimum Essential Medium (MEM; Sigma-Aldrich, Darmstadt, Germany) supplemented with 2% heat-inactivated fetal bovine serum (FBS; Sigma-Aldrich, Darmstadt, Germany), 2 mM L-glutamine (Sigma-Aldrich, Darmstadt, Germany), and 100 units/mL penicillin G with […] streptomycin (Sigma-Aldrich, Darmstadt, Germany).
(§3) Investigated cells were propagated in Minimum Essential Medium (MEM; Sigma-Aldrich, Darmstadt, Germany) supplemented with 10% heat-inactivated fetal bovine serum (FBS; Sigma-Aldrich, Darmstadt, Germany) and 100 units/mL penicillin G with […] streptomycin (Sigma-Aldrich, Darmstadt, Germany). After reaching 80–90% confluency, cells were harvested with trypsin (Life Technologies, Warsaw, Poland) and seeded into 96-well microplates at 2 × 10^5 cells/mL after overnight incubation of cells at 37 °C in a humidified atmosphere containing 5% CO2.
(§4) The culture medium was removed from confluent cells grown in 96-well microplates, and the cells were inoculated with virus solutions in MEM supplemented with 2% FBS and antibiotics (HSV-1 MOI 0.005, 1000 virions/mL; HPIV-3 MOI 0.01, 2000 virions/mL; AdV5 MOI 0.005, 1000 virions/mL; EMCV 0.005, 1000 virions/mL; HCMV 20 PFU/well (plaque-forming units per well). After a 1-h (HSV-1, HPIV-3, AdV5, and EMCV) or 2-h adsorption period (HCMV), residual viral particles were removed, and infected cells were further incubated with MEM supplemented with 2% FBS containing compound concentrations in the range from 0.1 to 1000 µM [38]. All experiments were carried out in triplicate. The cell monolayers were incubated with the investigated compounds at 37 °C in a humidified atmosphere containing 5% CO2 until a cytopathic effect (CPE) was visible. Viral infection was evaluated by the MTT assay (as described previously) or plaque reduction assay. HCMV plaques were counted under an inverted microscope, Olympus IX73 (Olympus, Tokyo, Japan). Antiviral activity was expressed as the concentration required to reduce the number of viral plaques to 50% of the control (virus-infected but untreated).

[4] = tested on: Human adenovirus 5 (AdV5); assay: Antiviral screening at 10 µM; format: cell-based; conditions: AdV5-infected cells
Procedure: as §1, with “1a, 1c, 1a[PF6], 1c[PF6], 9b[PF6], 9c[PF6], 10a–10d, 2a,” for “1e–1g, 1e[PF6], 8a–8d,”, “2b” for “9a”
as §2
(§5) Vero, LLC-MK2, NCTC clone 929, MRC-5, and HeLa cells were propagated in Minimum Essential Medium (MEM; Sigma-Aldrich, Darmstadt, Germany) supplemented with 10% heat-inactivated fetal bovine serum (FBS; Sigma-Aldrich, Darmstadt, Germany) and 100 units/mL penicillin G with […] streptomycin (Sigma-Aldrich, Darmstadt, Germany). Upon reaching 80–90% confluency, cells were harvested with 0.25% trypsin in 1 mM EDTA (Life Technologies, Warsaw, Poland) and seeded onto 96-well microplates at 2 × 10^5 cells/mL. After overnight incubation of cells at 37 °C in a humidified atmosphere containing 5% CO2, the culture medium was removed, and cells were inoculated with the respective virus solution in MEM supplemented with 2% FBS and antibiotics (HSV-1 MOI 0.005, 1000 virions/mL; HPIV-3 MOI 0.01, 2000 virions/mL; AdV5 MOI 0.005, 1000 virions/mL, EMCV MOI 0.005, 1000 virions/mL, HCMV 20 PFU (plaque forming units) per well). After a 1-h (HSV-1, HPIV-3, AdV5, and EMCV) or 2-h adsorption period (HCMV), the residual virus was removed, and the infected cells were further incubated with a 100 μL freshly prepared solution of tested compounds diluted with a maintenance medium supplemented with 2% FBS to obtain compound concentrations of 10 µM. The final concentration of DMSO in the medium was 0.1%. All experiments were carried out in triplicate. The cells monolayers were incubated with the compounds at 37 °C in a humidified atmosphere containing 5% CO2 until the typical cytopathic effect (CPE) was visible. Viral infection was evaluated by the MTT assay or plaque reduction assay (HCMV). After incubation with drugs, the cells were treated with 3-(4,5-dimethylthiazol-2-yl)-2,5-diphenyltetrazolium bromide dye solution (MTT, Sigma-Aldrich, Darmstadt, Germany) (25 μL, 5 mg/mL) for 2 h and lysed with solvent solution (100 μL) containing: DMF (Sigma-Aldrich, Darmstadt, Germany) (45 mL), SDS (Sigma-Aldrich, Darmstadt, Germany) (13.5 g), and distilled water (55 mL). After overnight incubation at 37 °C, the optical density at 550 nm and a reference wavelength of 670 nm were measured on a microplate spectrophotometer, Varioskan Lux (Thermo Fisher Scientific, Waltham, MA, USA). The number of HCMV plaques was counted under an inverted microscope Olympus IX73 (Olympus, Tokyo, Japan).

[5] = tested on: Encephalomyocarditis virus (EMCV); assay: Antiviral screening at 10 µM; format: cell-based; conditions: Cardiovirus A, EMCV-infected cells, read-out: Cell line (viability %) EMCV
Procedure: as §1, with “1a, 1c, 1a[PF6], 1c[PF6], 9b[PF6], 9c[PF6], 10a–10d, 2a,” for “1e–1g, 1e[PF6], 8a–8d,”, “2b” for “9a”
as §2, §5

[6] = tested on: Human parainfluenza virus type 3 (HPIV-3); assay: Antiviral screening at 10 µM; format: cell-based; conditions: antiviral screening, HPIV-3-infected cells
Procedure: as §1, with “1a, 1c, 1a[PF6], 1c[PF6], 9b[PF6], 9c[PF6], 10a–10d, 2a,” for “1e–1g, 1e[PF6], 8a–8d,”, “2b” for “9a”
as §2, §5

[7] = tested on: Human herpesvirus 1 (HSV-1); assay: Antiviral screening at 10 µM; format: cell-based; conditions: antiviral screening, HSV-1-infected cells
Procedure: as §1, with “1a, 1c, 1a[PF6], 1c[PF6], 9b[PF6], 9c[PF6], 10a–10d, 2a,” for “1e–1g, 1e[PF6], 8a–8d,”, “2b” for “9a”
as §2, §5

[8] = Cytotoxicity screening at 10 µM (MTT); format: cell-based, Human; conditions: human, MRC-5 cells, read-out: Cell line (viability %) MRC-5
[9] = Cytotoxicity MTT assay (0.1–1000 µM), CC50; format: cell-based, Macaca mulatta; conditions: Macaca mulatta, LLC-MK2 cells, LLC-MK2, MTT, 48 h; read-out: CC50 Normal Cell Lines LLC-MK2
LLC-MK2 cells = assay: Cytotoxicity MTT assay (0.1–1000 µM), CC50; format: cell-based, Macaca mulatta; conditions: Table S2, range 0.1-1000 µM, LLC-MK2; read-out: Cell line (CC50 M) LLC-MK2
[10] = Cytotoxicity screening at 10 µM (MTT); format: cell-based, Macaca mulatta; conditions: Macaca mulatta, LLC-MK2 cells, read-out: Cell line (viability %) LLC-MK2
NCTC clone 929 cells = assay: Cytotoxicity screening at 10 µM (MTT); format: cell-based, Mus musculus; conditions: 48 h
[11] = Cytotoxicity MTT assay (0.1–1000 µM), CC50; format: cell-based, Mus musculus; conditions: Mus musculus, NCTC clone 929 cells, NCTC clone 929, MTT, 48 h; read-out: CC50 Normal Cell Lines NCTC Clone 929
[12] = Cytotoxicity MTT assay (0.1–1000 µM), CC50; format: cell-based, Human; conditions: human, HeLa cells, MTT, 48 h, read-out: CC50 Cancer Cell Lines HeLa
[13] = tested on: Human herpesvirus 5 (HCMV); assay: Antiviral activity assay (0.1–1000 µM), IC50, plaque reduction; format: cell-based; conditions: Human betaherpesvirus 5, 20 PFU/well
Procedure: as §1, §2, §3, §4

[14] = tested on: Human adenovirus 5 (AdV5); assay: Antiviral activity assay (0.1–1000 µM), IC50; format: cell-based; conditions: Human mastadenovirus C; AdV5, MOI 0.005; read-out: IC50 AdV5
Procedure: as §1, §2, §3, §4

[15] = tested on: Encephalomyocarditis virus (EMCV); assay: Antiviral activity assay (0.1–1000 µM), IC50; format: cell-based; conditions: Cardiovirus A, MOI 0.005, read-out: IC50 EMCV
Procedure: as §1, §2, §3, §4

[16] = tested on: Human herpesvirus 1 (HSV-1); assay: Antiviral activity assay (0.1–1000 µM), IC50; format: cell-based; conditions: Human alphaherpesvirus 1; HSV-1, MOI 0.005
Procedure: as §1, §2, §3, §4

[17] = Cytotoxicity MTT assay (0.1–1000 µM), CC50; format: cell-based, Human; conditions: human, HepG2 cells, read-out: CC50 Cancer Cell Lines HepG2
[18] = Cytotoxicity MTT assay (0.1–1000 µM), CC50; format: cell-based, Cercopithecus aethiops; conditions: Cercopithecus aethiops, Vero cells, read-out: CC50 Normal Cell Lines Vero
[19] = Cytotoxicity MTT assay (0.1–1000 µM), CC50; format: cell-based, Human; conditions: human, MRC-5 cells, MRC-5, MTT, read-out: CC50 Normal Cell Lines MRC-5
[20] = Cytotoxicity MTT assay (0.1–1000 µM), CC50; format: cell-based, Human; conditions: human, A549 cells, read-out: CC50 Cancer Cell Lines A549
[21] = Human respirovirus 3, HPIV-3, MOI 0.01, read-out: IC50 HPIV-3

`Cc1c(C)[n+](Cc2ccccc2)cn1Cc1ccccc1` [Compound 1a, lepidiline A, reference compound] gave a viability at 48 h, 10 µM [1] of 43%, a viability at 48 h, 10 µM [2] of 90.5% and an IC50 ([3]; Table S4, range 0.1-1000 µM, HPIV-3, read-out: IC50 (M) HPIV-3) of over 6.77e-05 M. For the same molecule, the “Cell line (viability %) AdV5” value [4] was 45.8%, the viability at 10 µM [5] was 7.4% and the “Cell line (viability %) HPIV-3” value [6] was 86.0%. For the same molecule, the “Cell line (viability %) HSV-1” value [7] was 48.0%, the viability at 48 h, 10 µM [8] was 90.2% and the CC50 at 48 h [9] was under 80 µM. For the same molecule, the CC50 (LLC-MK2 cells) was 67.7 ± 2.52 µM, the viability at 48 h, 10 µM [10] was 76.3% and the “Cell line (viability %) NCTC clone 929” value (NCTC clone 929 cells) was 86.0%.
With `Cc1c(C)[n+](Cc2cccc(OC(F)(F)F)c2)cn1Cc1ccccc1.[Cl-]` [Compound 1f, 1-Benzyl-4,5-dimethyl-3-[3-(trifluoromethoxy)benzyl]imidazolium chloride] the CC50 at 48 h [11] was 48.3 ± 2.89 µM, the CC50 at 48 h [12] was 0.039 ± 0.001 µM and the IC50 [13] was over 36.7 µM. The IC50 [14] was over 0.039 µM, the IC50 [15] was over 48.3 µM and the IC50 [3, 21] was over 5.9e-05 M. It also gave an IC50 [16] of over 38 µM, a CC50 at 48 h [17] of 152 ± 2 µM and a CC50 at 48 h [18] of 38 ± 4 µM. The CC50 at 48 h [19] was 36.7 ± 2.31 µM, the CC50 at 48 h [9] was 59 ± 1 µM and the CC50 at 48 h [20] was 1.6 ± 0.173 µM. For the same molecule, the melting point was 108 to 110 °C.
For `Cc1c(C)[n+](OCc2ccccc2)cn1Cc1cccc(F)c1.[Br-]` [Compound 8a, 3-Benzyloxy-1-(3-fluorobenzyl)-4,5-dimethylimidazolium bromide], the CC50 at 48 h [11] was 257 ± 10.4 µM, the CC50 at 48 h [12] was 20 ± 3.46 µM and the IC50 [13] was over 206 µM. For the same molecule, the IC50 [14] was over 20 µM, the IC50 [15] was over 257 µM and the IC50 [3, 21] was over 0.000327 M. The IC50 [16] was over 250 µM, the CC50 at 48 h [17] was 361.7 ± 2.89 µM and the CC50 at 48 h [18] was 250 ± 10 µM. The CC50 at 48 h [19] was 206 ± 8.61 µM, the CC50 at 48 h [9] was 327 ± 7.64 µM and the CC50 at 48 h [20] was 7.5 ± 0.5 µM. The melting point was 124 to 126 °C.
